# Measurements as given in PubChem BioAssay (NCI).
# Values joined by “and” are separate entries in the source; they are usually repeats but may differ in a detail not shown here. Equal entries are not always repeated.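 Interpolation was linear, between the two tested concentrations surrounding the appropriate level; five concentrations were tested over 48 hours in 96-well plates. Abbreviation: GI50, concentration required for 50% inhibition of growth. TGI is the concentration that stops growth completely.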
# Tests used:
# Assay in all cases: NCI anticancer screen, dose series, 48 h
# CCRF-CEM leukemia = system: CCRF-CEM leukemia
# K-562 leukemia = system: K-562 leukemia
# LXFL 529 NSCLC = system: LXFL 529 NSCLC
# UACC-257 melanoma = system: UACC-257 melanoma
# IGROV1 ovarian = system: IGROV1 ovarian
# DMS 273 small cell lung = system: DMS 273 small cell lung
# M14 melanoma = system: M14 melanoma
# T-47D breast = system: T-47D breast
# PC-3 prostate = system: PC-3 prostate
# KM20L2 colon = system: KM20L2 colon
Compound,TGI (CCRF-CEM leukemia),TGI (K-562 leukemia) [µM],TGI (LXFL 529 NSCLC) [µM],TGI (UACC-257 melanoma),TGI (IGROV1 ovarian),TGI (DMS 273 small cell lung) [µM],TGI (M14 melanoma),GI50 (T-47D breast) [µM],TGI (T-47D breast),GI50 (PC-3 prostate) [µM],TGI (PC-3 prostate),GI50 (CCRF-CEM leukemia),GI50 (K-562 leukemia) [µM],GI50 (LXFL 529 NSCLC) [µM],GI50 (UACC-257 melanoma) [µM],GI50 (IGROV1 ovarian) [µM],GI50 (M14 melanoma) [µM],GI50 (KM20L2 colon) [µM],TGI (KM20L2 colon) [µM]
CCOC(=O)C(Cc1ccccc1)NC(=O)c1[nH]cnc1/N=N/N(C)C (stereo not given),> 100 µM,> 100,> 100,> 100 µM,> 100 µM,> 100,> 100 µM,,,,,,,,,,,,
CCC1(OC(=O)CN)C(=O)OCc2c1cc1n(c2=O)Cc2cc3ccccc3nc2-1 (stereo not given),0.534 µM and 0.677 µM,> 100,6.06,0.721 µM and 0.545 µM,0.726 µM and 2.21 µM,,0.846 µM and 0.174 µM,0.0426,0.916 µM,0.172,> 100 µM,0.00116 µM,0.17,0.135,0.0859,0.134,0.0179,0.056,
CC1=NOC(=O)/C1=C/c1ccc([N+](=O)[O-])cc1,> 100 µM,> 100,,> 100 µM,> 100 µM,> 100,> 100 µM,,,,,,,,,,,,> 100
CC(C(=O)c1ccccc1)C1(O)C(=O)Nc2ccc(Cl)cc21 (stereo not given),,,> 100,> 100 µM,> 100 µM,,> 100 µM,,,,,,,,,,,,> 100
CCOC(=O)C1=C(C)N(NC(N)=O)C2(N)N(NC(N)=O)C(C)=C(C(=O)OCC)C12C(=O)OCC (stereo not given),,> 100,> 100,> 100 µM,> 100 µM,> 100,> 100 µM,,,,,,,,,,,,> 100
COc1ccc2oc(-c3ccc(OC)c(OC)c3OC)cc(=O)c2c1,> 100 µM,> 100,> 100,> 100 µM,> 100 µM,,> 100 µM,,,,,,,,,,,,63.1
O=C1CNC(=O)c2[nH]cnc2N1,> 100 µM,> 100,> 100,,> 100 µM,> 100,> 100 µM,,,,,,,,,,,,
O=C(Nc1ccccc1-c1nn(CN2CCNCC2)c(=S)n(CN2CCNCC2)c1=O)C(F)(F)F,45.2 µM,59,,31 µM,46.5 µM,35.3,31.1 µM,,,,,,,,,,,,
C[n+]1c2ccccc2nc2ccccc21,> 28.7 µM,> 32.4,,5.01 µM,14 µM,,3.89 µM,1.07,2.72 µM,1.06,12 µM,0.683 µM,1.86,,1.8,2.86,1.67,,
CCCCCCCCCCCCCCCCOP(=O)([O-])OCC[N+](C)(C)C,,64.9,,6.98 µM and 64.7 µM,3.7 µM and 14 µM,25.8,,4.42,16.2 µM and 35.9 µM,0.277,1.51 µM and 7.73 µM,1.09 µM and 9.72 µM,,,2.31,0.901,1.56,,
Nc1nc2cc(CC[C@H]3C[C@@H](n4ccc5c(N)ncnc54)[C@H](O)[C@@H]3O)ccc2cc1Br,> 100 µM,> 100,,19 µM,23.1 µM,,25.6 µM,0.785,27.2 µM,11,25.9 µM,12.3 µM,1.38,,3.68,10.2,11.4,,
CC(=O)OC12c3ccccc3-c3ccccc3C1C(C(=O)O)C2C(=O)O (stereo not given),> 10 µM,> 10,,> 10 µM,> 10 µM,,> 10 µM,,> 10 µM,,> 10 µM,,,,,,,,
CCCCCCCC(=O)SCC/C=C/[C@@H]1CC(=O)NCc2nc(cs2)C2=N[C@@](C)(CS2)C(=O)N[C@@H](C(C)C)C(=O)N1,> 100 µM,> 100,,0.0392 µM,1.8 µM,,> 100 µM,< 0.0124,0.0677 µM,< 0.0125,> 100 µM,0.0265 µM,0.0182,,< 0.01,0.0153,0.0323,,
CCCCCCCC/C=C1\CCC(CN2CCOCC2)C1=O (stereo not given),10.9 µM,8.68,9.2,21.7 µM,21 µM,,16.7 µM,,4.57 µM,,23.7 µM,,,,,,,,33
O=C(/C=C1\C(=O)N(Cc2ccccc2)c2ccccc21)c1ccc(OCCN2CCCCC2)cc1,5.9 µM,6.53,,25.9 µM,3.55 µM,,3.72 µM,1.6,3.4 µM,1.85,3.92 µM,1.83 µM,1.84,,12.9,1.76,1.92,,
COC1CCC(OC)C(C2(C3CC(OC)CCC3OC)OC(=O)c3ccccc32)C1 (stereo not given),,> 100,,> 100 µM,> 100 µM,> 100,> 100 µM,,,,,,,,,,,,> 100
COc1cc2c(cc1OC)C1Cc3ccc(OC)c(OC)c3C[N+]1([O-])CC2 (stereo not given),> 100 µM,> 100,> 100,> 100 µM,,,> 100 µM,,,,,,,,,,,,> 100
NC(=O)c1cccc(OCC(O)CO)c1 (stereo not given),> 100 µM,> 100,,> 100 µM,> 100 µM,,> 100 µM,,> 100 µM,,> 100 µM,,,,,,,,
